Measured values reported in PMC10671498, “Antiproliferative and Cytotoxic Properties of Propynoyl Betulin Derivatives against Human Ovarian Cancer Cells: In Vitro Studies” (International Journal of Molecular Sciences, 2023).
Like-named read-outs stand apart in the source and are kept apart here.

Columns and labels:
SK-OV-3 cells [1] = experiment: SRB cell proliferation assay, SK-OV-3; type: cell-based, human; settings: for IC50: Homo sapiens
Experimental: This study used ovarian cancer cell lines, which are part of the panel of cell lines used as part of the NCI-60 Human Cell Lines Screen program, characterized by overexpression of the c-erbB2/neu (HER2) receptor [62, 63]. The human ovarian cancer cell lines (SK-OV-3 and OVCAR-3) were purchased from the American Type Culture Collection (ATCC®, Manassas, Virginia, USA). SK-OV-3 cells (ATCC No. HTB-77™) were cultured in McCoy’s 5A medium containing D-glucose (3 g/L), L-glutamine (0.219 g/L), and sodium bicarbonate (2.2 g/L) supplemented with 10% fetal bovine serum, 10 mM HEPES (pH 7.3–7.5), 100 U/mL penicillin, and 100 μg/mL streptomycin (all from Sigma Aldrich).
(§1) Betulin 1 and its derivatives were dissolved in dimethyl sulfoxide (DMSO; Sigma Aldrich) as a 15 mM stock solution. Working solutions were prepared through the dilution of stock solutions with culture medium. The final DMSO concentration in culture media was adjusted to 0.2%. The effect of tested compounds on the proliferation of SK-OV-3 and OVCAR-3 cells was measured using the In Vitro Toxicology Assay Kit, Sulforhodamine B based (Sigma Aldrich). Cells were seeded in 96-well plates (Greiner Bio-One, Kremsmünster, Austria) at an initial density of 3 × 10^3 cells per well in 200 µL of culture medium. After 24 h of incubation, betulin 1 and its derivatives at a concentration range of 0.1 μM to 30 μM were added to the wells. Control cultures were treated with vehicle alone (0.2% DMSO). The incubation periods for cells with test compounds were 1 day, 3 days, and 5 days. After appropriate incubation periods, culture media were removed, and cells were fixed in 10% trichloroacetic acid solution for 60 min at 4 °C. After fixation, the TCA solution was removed, and the plates were washed three times with deionized water (300 μL/well) and dried. At the next step, cells were stained with 0.4% sulforhodamine B for 30 min. The excess dye was removed by washing three times with 1% (vol/vol) acetic acid. The protein-bound dye was dissolved in 200 μL 10 mM Tris base solution. Absorbance was measured at 570 nm and 690 nm (reference wavelength) using the MRX Revelation plate reader (Dynex Technologies, Chantilly, VA, USA).
(§2) GraphPad Prism 10.0.2 (GraphPad Software Inc., San Diego, CA, USA) software was used for calculations and the statistical analysis of the IC50 values (Table 1). IC50 was determined by using the “nonlinear regression” mode, and the “log(inhibitor) vs. normalised response—Variable slope” equation was chosen in GraphPad Prism software for calculations. The obtained data were normalized to run from 100% down to 0%, and logarithms of concentration were used. Graphs (Figure 2, Figure 3, Figure 4, Figure 5 and Figure 8, and Supplementary Figure S1) were also prepared using this software. In the case of the lack of normal distribution or homogeneity of variances, the remaining results were analyzed using a non-parametric Kruskal–Wallis test with multiple comparisons. Post hoc analysis was performed with the non-parametric equivalent of Tukey’s test. A p value of <0.05 was considered statistically significant. Otherwise, a one-way ANOVA followed by a Tukey’s post hoc test was applied. t-tests was used to perform pairwise comparisons between group means. Analysis was performed using Statistica 13.1 software (StatSoft, Tulsa, OK, USA).

[2] = test system: 18Co normal myofibroblasts; experiment: SRB cell proliferation assay, 18Co normal myofibroblasts; type: cell-based; settings: 18Co, Neg: negative in the concentration used
Experimental: Next, 18Co cells (ATCC No. CRL-1459™) were cultured in MEM medium containing HEPES buffer, 10% fetal bovine serum, 100 U/mL penicillin, and 100 μg/mL streptomycin (all from Sigma Aldrich).
as §1, §2

SK-OV-3 cells [3] = experiment: Cell morphology, acridine orange staining; type: cell-based, human; settings: SK-OV-3, 24 h, 30 µM
Experimental: Acridine orange staining was preceded by preparation of a cell culture at a density 1 × 10^5 per well in a 24-well glass bottom plate (NEST Biotechnology, Wuxi, China). Cells were cultured for 24 h in a standard medium (1 mL), after which the medium was replaced with a new medium containing 10 µM and 30 µM of the test compounds or with 0.2% DMSO (control). Cells were incubated in the presence of test substances for 24 h in a CO2 incubator. To each of the test wells, acridine orange dissolved in PBS (the final concentration was 1 µg/mL) was added and incubated for 5 min in a CO2 incubator. After incubation, the cells were observed under a Nikon Eclipse TS-100F microscope (Nikon Instruments Europe, Amstelveen, The Netherlands). The photographs were taken with a Nikon DS-Fi1 digital camera, supported by the NIS-Elements application.

SK-OV-3 cells [4] = experiment: TMRM analysis of mitochondrial membrane potential; type: cell-based, human; settings: SK-OV-3, 3 h, 30 µM
Experimental: Tetramethylrhodamine methyl ester (Sigma Aldrich) was used for the assessment of changes in the transmembrane potential of mitochondria. TMRM is a fluorescent cationic dye accumulating in mitochondria in a potential-dependent manner. Cell cultures were prepared as described above for acridine orange staining. Cells were exposed to test solutions for 3 h, and then TMRM was added (final concentration 100 nM) followed by incubation for 30 min in the CO2 incubator. Prior to observation, the plates were centrifuged (250× g, 5 min), and the medium was changed to PBS. The cells were analyzed under the Nikon Eclipse TS-100F microscope and photographed.

T47D cell line = test system: T47D cell line; parameters: method as in PMID 33572631; settings: cited from earlier work
SNB-19 cell line = test system: SNB-19 cell line; parameters: method as in PMID 33572631; settings: cited from earlier work

Compound | IC50 (SK-OV-3 cells [1]; 72 h, SK-OV-3, 3 days treatment, SRB assay, read-out: IC50) [nM] | IC50 (SK-OV-3 cells [1]; 120 h, SK-OV-3, 5 days treatment, SRB assay, read-out: IC50) [nM] | IC50 ([2]; 3 days treatment) | IC50 ([2]; 5 days treatment) | cell morphology (acridine orange) (SK-OV-3 cells [3]) | IC50 (SK-OV-3 cells [1]; SK-OV-3, 72 h) [nM] | IC50 (SK-OV-3 cells [1]; SK-OV-3, 120 h) [nM] | concentration at which antiproliferative activity (decrease in the number of cells) was evident (SK-OV-3 cells [1]; SK-OV-3, SRB assay, 0.1–30 µM) [µM] | mitochondrial membrane potential (TMRM fluorescence) (SK-OV-3 cells [4]) | IC50 (T47D cell line) [nM] | IC50 (SNB-19 cell line) [nM]
C=C(C)[C@@H]1CC[C@]2(CO)CC[C@]3(C)[C@H](CC[C@@H]4[C@@]5(C)CC[C@H](O)C(C)(C)[C@@H]5CC[C@]43C)[C@@H]12 [Compound 1, lup-20(29)-ene-3β,28-diol, reference compound] | 8210 | 4590 | Neg | Neg | typical apoptotic morphology | – | – | – | – | – | –
C#CC(=O)OC[C@]12CC[C@@H](/C(C)=C/P(=O)(OCC)OCC)C1C1CCC3[C@@]4(C)CC[C@H](O)C(C)(C)C4CC[C@@]3(C)[C@]1(C)CC2 (stereo partly shown) [Compound 6, E-29-diethoxyphosphoryl-28-O-propynoylbetulin] | – | – | Neg | Neg | – | 290 | 260 | 1 | reduced the mitochondrial membrane potential | 700 | 430
